Test results: patent US20140349340A1, “MBTH-LIKE PROTEINS IN THE PRODUCTION OF SEMI SYNTHETIC ANTIBIOTICS” (DSM SINOCHEM PHARMACEUTICALS NETHERLANDS B.V., priority 2012, published 2014)

What was measured:
Assay type in all cases: biochemical
[1] = PPi release assay, adenylation activity with L-hydroxyphenylglycine; details: substrate L-hydroxyphenylglycine
Text: (§1) These assays use inorganic pyrophosphatases to convert PPi produced during aminoacyl-AMP formation to orthophosphate (Pi). To measure Pi concentrations some of these assays use molybdate/malachite green reagent for colorimetric detection (McQuade et al. 2008) or, as used in the context of the present invention, a shift in absorbance maximum by conversion of 7-methyl-6-thioguanosine (MESG) by purine nucleoside phosphorylase (Ehmann D. E. et al. (Proc. Natl. Acad. Sci. (2000) 97, 2509-2514) or Daniel & Aldrich (Anal. Biochem. (2010) 404, 56-63)).
(§2) To determine the adenylation activity of the adenylation domains, the Enzchek® pyrophosphate assay kit (Life Technologies) was used as described by Ehmann D. E. et al. (Proc Nat Acad Science (2000) 97, 2509-2514) with small modifications. The reactions were performed 96 wells UV/Vis transparent plates (BD Falcon). The reaction mixture comprises 50 mM HEPES pH 8.0, 10 mM MgCl2, 5 mM ATP, 75 mM DTT, 0.03 U Inorganic Pyrophosphatase (IP), 1 U Purine Nucleoside Phosphorylase (PNP) and 0.2 mM MESG in a volume of 70 μl. Next 20 μl (around 0.5-2 μM final concentration) of purified A(T) domain, with or without co-purification of the MbtH like helper protein was added and the reaction was pre-incubated for 15 minutes at RT to reduce contaminating Pi. Following the pre-incubation, 10 μl of a 10 mM or 1 mM solution of the appropriate amino acid depending on the performed specificity determination was added to initiate the adenylation reaction and the absorbance at 360 nm was measured using a TECAN I Control spectrophotometer. Absorbance measurements were made every 5 to 10 min over a period of up to 240 min. A reaction with addition of 10 μl MilliQ water instead was used to determine and subtract the background absorbance. As substrates the following amino acids were used: D- or L-phenylalanine, D- or L-hydroxyphenylglycine, D- or L-phenylglycine, L-tryptophan, L-valine, L-cysteine, and L-leucine.

[2] = PPi release assay, adenylation activity with D-hydroxyphenylglycine; details: substrate D-hydroxyphenylglycine
Text: as §1, §2

[3] = PPi release assay, adenylation activity with L-phenylalanine; details: substrate L-phenylalanine
Text: as §1, §2

[4] = PPi release assay, adenylation activity with D-phenylalanine; details: substrate D-phenylalanine
Text: as §1, §2

[5] = PPi release assay, adenylation activity with L-phenylglycine; details: substrate L-phenylglycine; co-purified with Tcp13, or Tcp17 or VMbtH
Text: as §1, §2

[6] = PPi release assay, adenylation activity with D-phenylglycine; details: substrate D-phenylglycine; co-purified with Tcp13, or Tcp17 or VMbtH
Text: as §1, §2

[7] = co-purified with MbtH-like protein VMbtH
[8] = protein alone, without MbtH-like protein
[9] = co-purified with MbtH-like protein CMbtH
[10] = co-purified with Tcp13, or Tcp17 or VMbtH

Substance | adenylation activity (absorption 360 nm, PPi release assay) [1, 7] | adenylation activity (absorption 360 nm, PPi release assay) [1, 8] | adenylation activity (absorption 360 nm, PPi release assay) [2, 7] | adenylation activity (absorption 360 nm, PPi release assay) [2, 8] | adenylation activity (absorption 360 nm, PPi release assay) [3, 7] | adenylation activity (absorption 360 nm, PPi release assay) [3, 8] | adenylation activity (absorption 360 nm, PPi release assay) [4, 7] | adenylation activity (absorption 360 nm, PPi release assay) [4, 8] | adenylation activity (PPi release assay) [1, 9] | adenylation activity (PPi release assay) [1, 10] | adenylation activity (PPi release assay) [2, 9] | adenylation activity (PPi release assay) [2, 10] | adenylation activity (PPi release assay) [5] | adenylation activity (PPi release assay) [6] | adenylation activity (PPi release assay) [3, 10] | adenylation activity (PPi release assay) [4, 10]
Dbv25_M1_A: purified adenylation domain of Dbv25 module M1 (SEQ ID NO: 2); Nonomuraea sp. ATCC 39727 | clear adenylation activity | No adenylation activity | clear adenylation activity | No adenylation activity | no activity | No adenylation activity | no activity | No adenylation activity |  |  |  |  |  |  |  | 
ComB_M1_A: purified adenylation domain of ComB module M1 (SEQ ID NO: 9); Streptomyces lavendulae |  | No adenylation activity |  | No adenylation activity |  | No adenylation activity |  | No adenylation activity | confirmed its activity | no adenylation activity | confirmed its activity | no adenylation activity | no adenylation activity | no adenylation activity | no adenylation activity | no adenylation activity
StaA_M1_A: purified adenylation domain of StaA module M1 (SEQ ID NO: 3); Streptomyces toyocaensis | clear adenylation activity | No adenylation activity | clear adenylation activity | No adenylation activity | no activity | No adenylation activity | no activity | No adenylation activity |  |  |  |  |  |  |  | 
